Results as given in paper PMC3104491 (mBio, 2011).
Values belong to the molecule of their own block, whether it stands above or below them.

Tests used:
[1] = biological target: T1, CTL843 (SAMHT, SAM/SAH transporter) (Chlamydia trachomatis, UniProt B0B8F4); test: inhibition of […]SAM uptake in whole E. coli cells expressing CTL843; assay type: cell-based
T1 sequence (B0B8F4 1-327): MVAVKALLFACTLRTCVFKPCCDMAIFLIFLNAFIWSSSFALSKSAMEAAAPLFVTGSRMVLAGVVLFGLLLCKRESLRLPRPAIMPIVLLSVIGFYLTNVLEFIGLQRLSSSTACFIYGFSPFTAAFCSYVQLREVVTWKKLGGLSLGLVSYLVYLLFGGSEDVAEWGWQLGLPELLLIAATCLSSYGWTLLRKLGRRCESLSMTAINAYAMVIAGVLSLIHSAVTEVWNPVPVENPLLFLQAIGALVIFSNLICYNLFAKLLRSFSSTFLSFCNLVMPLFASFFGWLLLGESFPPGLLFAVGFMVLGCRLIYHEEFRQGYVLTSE

[2] = substrate: C[S@@+](CC[C@H](N)C(=O)O)C[C@H]1O[C@@H](n2cnc3c(N)ncnc32)[C@H](O)[C@@H]1O; test: cells, lysate or membranes

Ki [1]: 4.12 µM
Molecule: Nc1ncnc2c1ncn2[C@@H]1O[C@H](CSCC[C@H](N)C(=O)O)[C@@H](O)[C@H]1O [SAH, S-Adenosyl-L-homocysteine]

B1: CTL843 (SAMHT, SAM/SAH transporter) (Chlamydia trachomatis L2/434/Bu) (protein)
chain: T1 sequence (B0B8F4 1-327)
Km [2]: 5.88 ± 0.11 µM
